Article PMC8352664 (The Journal of Biological Chemistry, 2021)

System: CD8^+ T cells in PBMCs from convalescent COVID-19 patients
Format: cell-based, human

YLQPSTFLL [S^269–277R273S]
HLA-A2^S269–277+CD8+ T cell cross-reactivity between WT S^269–277 and variant peptide: no HLA-A2^S269–277+CD8^+ T cell cross-reactivity
